This passage reports tumor development results from patent US20250127805A1, “ALCOHOLIC FORMULATION WITH A MIXTURE OF ALKALOIDS, PRENOL LIPIDS AND FLAVONOIDS” (PONTIFICIA UNIVERSIDAD JAVERIANA, priority 2023, published 2025).

For the assay, the system named is cancer cell line type 3 model. Nature of the assay: Circulating blasts, tumor development and survival in type 3 model. It is filed as in vivo. As to conditions: type 3 cancer cell line. From the text:
FIG. 12. Frequency circulating blasts in cancer cell line type 3 model.

As for `COc1cccc2c1C(=O)c1c(O)c3c(c(O)c1C2=O)C[C@@](O)(C(=O)CO)C[C@@H]3O[C@H]1C[C@H](N)[C@H](O)[C@H](C)O1` [doxorubicin], the tumor development entry is given as “decrease in tumor development”.
